In US20110230481A2, “DERIVATIVES OF TETRABROMOBENZIMIDAZOLE, A PROCESS FOR THE PREPARATION THEREOF, A PHARMACEUTICAL COMPOSITION COMPRISING THE SAME, A METHOD OF USING THE SAME, A METHOD FOR MODULATING OR REGULATING SERINE/THREONINE KINASES, AND SERINE/THREONINE KINASES MODULATING AGENT” (SELVITA S.A., priority 2009, published 2011):

Key:
Assay in all cases: KINOMEscan Max
Type in all cases: binding
ACVR1 = ACVR1 (Homo sapiens, UniProt Q04771)
In short: (§1)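 In this platform each kinase carries a DNA tag and is offered an immobilized ligand aimed at the active site; test compound competes for binding, and the amount of kinase held on the ligand is measured by qPCR.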

ACVR2B = target: T1, ACVR2B (Homo sapiens, UniProt Q13705); conditions: 1 μM
T1 construct: DNA tag (qPCR label); purchased Ambit Kinomescan (contract screening)
T1 sequence (Q13705 19-512): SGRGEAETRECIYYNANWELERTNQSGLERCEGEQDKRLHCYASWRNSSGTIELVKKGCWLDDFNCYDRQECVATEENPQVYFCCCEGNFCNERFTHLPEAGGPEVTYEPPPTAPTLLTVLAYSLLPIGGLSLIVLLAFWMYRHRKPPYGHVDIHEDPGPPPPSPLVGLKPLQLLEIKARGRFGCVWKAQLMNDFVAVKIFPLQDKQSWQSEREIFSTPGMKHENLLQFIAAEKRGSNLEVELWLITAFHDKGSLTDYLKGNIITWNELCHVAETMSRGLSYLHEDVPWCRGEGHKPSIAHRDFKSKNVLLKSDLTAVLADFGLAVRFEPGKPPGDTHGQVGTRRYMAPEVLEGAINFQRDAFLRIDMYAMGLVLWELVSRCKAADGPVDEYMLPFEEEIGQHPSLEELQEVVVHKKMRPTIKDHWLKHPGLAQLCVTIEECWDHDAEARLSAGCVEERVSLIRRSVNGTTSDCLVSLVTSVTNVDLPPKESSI
In short: as §1

ACVRL1 = target: T2, ACVRL1 (Homo sapiens, UniProt P37023)
T2 construct: DNA tag (qPCR label); purchased Ambit Kinomescan (contract screening)
T2 sequence (P37023 22-503): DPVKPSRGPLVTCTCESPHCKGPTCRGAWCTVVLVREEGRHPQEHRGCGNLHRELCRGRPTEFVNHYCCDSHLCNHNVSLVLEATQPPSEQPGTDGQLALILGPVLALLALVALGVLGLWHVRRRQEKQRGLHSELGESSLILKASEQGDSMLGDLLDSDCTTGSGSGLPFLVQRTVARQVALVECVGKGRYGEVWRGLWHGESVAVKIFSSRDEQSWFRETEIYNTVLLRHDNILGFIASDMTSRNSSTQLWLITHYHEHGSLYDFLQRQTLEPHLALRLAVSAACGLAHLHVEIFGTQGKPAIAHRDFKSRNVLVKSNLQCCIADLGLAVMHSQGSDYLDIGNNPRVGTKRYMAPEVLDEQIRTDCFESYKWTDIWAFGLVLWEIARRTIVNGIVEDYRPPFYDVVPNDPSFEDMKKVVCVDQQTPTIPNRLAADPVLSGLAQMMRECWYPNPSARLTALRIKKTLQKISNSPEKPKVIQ
In short: as §1

AKT3 = target: T3, AKT3 (Homo sapiens, UniProt Q9Y243)
T3 construct: purchased Ambit (KINOMEscan Max service)
T3 sequence (Q9Y243 whole entry): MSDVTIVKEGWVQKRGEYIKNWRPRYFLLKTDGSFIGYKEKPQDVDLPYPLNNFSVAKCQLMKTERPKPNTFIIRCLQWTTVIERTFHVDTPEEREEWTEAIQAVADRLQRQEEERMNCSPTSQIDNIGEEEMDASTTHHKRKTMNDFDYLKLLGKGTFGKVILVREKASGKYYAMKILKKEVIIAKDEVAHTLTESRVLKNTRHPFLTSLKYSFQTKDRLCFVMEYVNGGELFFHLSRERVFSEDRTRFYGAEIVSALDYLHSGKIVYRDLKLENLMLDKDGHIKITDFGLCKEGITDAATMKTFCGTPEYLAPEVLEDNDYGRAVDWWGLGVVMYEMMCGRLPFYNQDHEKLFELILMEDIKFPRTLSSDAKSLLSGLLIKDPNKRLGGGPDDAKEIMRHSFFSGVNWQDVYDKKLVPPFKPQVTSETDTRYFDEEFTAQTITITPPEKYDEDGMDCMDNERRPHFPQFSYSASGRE
In short: as §1

AMPK-alpha2 = target: T4, AMPK-alpha2 (Homo sapiens, UniProt P54646)
T4 construct: DNA tag (qPCR label); purchased Ambit Kinomescan (contract screening)
In short: as §1

ARK5 = target: T5, ARK5 (Homo sapiens, UniProt O60285); conditions: 1 μM
T5 construct: DNA tag (qPCR label); purchased Ambit Kinomescan (contract screening)
T5 sequence (O60285 whole entry): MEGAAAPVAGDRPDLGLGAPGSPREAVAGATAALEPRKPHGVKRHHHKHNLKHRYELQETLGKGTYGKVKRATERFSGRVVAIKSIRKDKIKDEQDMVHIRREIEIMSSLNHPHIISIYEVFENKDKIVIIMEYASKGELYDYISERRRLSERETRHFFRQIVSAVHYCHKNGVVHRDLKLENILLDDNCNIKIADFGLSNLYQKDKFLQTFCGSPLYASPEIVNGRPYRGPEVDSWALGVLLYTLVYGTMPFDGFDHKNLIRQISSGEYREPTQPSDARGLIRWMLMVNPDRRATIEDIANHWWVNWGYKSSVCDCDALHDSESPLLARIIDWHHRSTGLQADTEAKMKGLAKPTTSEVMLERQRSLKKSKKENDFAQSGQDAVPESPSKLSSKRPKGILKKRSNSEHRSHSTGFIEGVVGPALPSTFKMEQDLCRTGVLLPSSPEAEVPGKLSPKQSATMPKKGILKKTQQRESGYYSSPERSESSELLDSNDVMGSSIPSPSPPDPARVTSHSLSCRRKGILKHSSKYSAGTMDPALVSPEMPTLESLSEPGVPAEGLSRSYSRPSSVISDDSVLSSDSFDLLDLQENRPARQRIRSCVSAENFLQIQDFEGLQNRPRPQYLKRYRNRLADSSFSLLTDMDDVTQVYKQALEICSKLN
In short: as §1

BRAF = target: T6, BRAF (Homo sapiens, UniProt P15056)
T6 construct: DNA tag (qPCR label); purchased Ambit Kinomescan (contract screening)
T6 sequence (P15056 whole entry): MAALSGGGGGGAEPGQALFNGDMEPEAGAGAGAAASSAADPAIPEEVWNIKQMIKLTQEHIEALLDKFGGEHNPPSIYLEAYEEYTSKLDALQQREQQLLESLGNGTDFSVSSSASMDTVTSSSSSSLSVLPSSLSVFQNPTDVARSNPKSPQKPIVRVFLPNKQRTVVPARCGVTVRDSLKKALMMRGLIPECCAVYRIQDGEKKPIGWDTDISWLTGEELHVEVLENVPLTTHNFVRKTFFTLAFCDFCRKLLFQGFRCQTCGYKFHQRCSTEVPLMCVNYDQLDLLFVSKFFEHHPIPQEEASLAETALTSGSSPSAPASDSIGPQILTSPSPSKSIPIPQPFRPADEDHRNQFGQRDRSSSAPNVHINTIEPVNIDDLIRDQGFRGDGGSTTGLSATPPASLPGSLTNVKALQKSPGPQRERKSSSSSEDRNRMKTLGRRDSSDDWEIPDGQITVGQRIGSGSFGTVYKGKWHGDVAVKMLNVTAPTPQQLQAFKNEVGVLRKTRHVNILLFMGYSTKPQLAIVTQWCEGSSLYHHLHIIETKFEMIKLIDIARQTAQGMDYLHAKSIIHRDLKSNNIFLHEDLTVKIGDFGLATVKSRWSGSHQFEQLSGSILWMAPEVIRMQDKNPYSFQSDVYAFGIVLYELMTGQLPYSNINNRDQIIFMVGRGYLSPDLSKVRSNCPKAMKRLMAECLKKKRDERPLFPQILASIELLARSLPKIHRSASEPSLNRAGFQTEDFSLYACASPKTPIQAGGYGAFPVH
In short: as §1

BRSK1 = target: T7, BRSK1 (Homo sapiens, UniProt Q8TDC3)
T7 construct: DNA tag (qPCR label); purchased Ambit Kinomescan (contract screening)
In short: as §1

CAMK1 = target: T8, CAMK1 (Homo sapiens, UniProt Q14012)
T8 construct: purchased Ambit Kinomescan (contract screening)
In short: as §1

CDKL3 = target: T9, CDKL3 (Homo sapiens, UniProt Q8IVW4)
T9 construct: purchased Ambit Kinomescan (contract screening)
In short: as §1

CSNK2A2 = target: T10, CSNK2A2 (Homo sapiens, UniProt P19784)
T10 construct: DNA tag (qPCR read-out)
In short: as §1

DYRK1B = target: T11, DYRK1B (Homo sapiens, UniProt Q9Y463)
T11 construct: DNA tag (qPCR read-out); purchased Ambit Kinomescan
In short: as §1

EIF2AK1 = target: T12, EIF2AK1 (Homo sapiens, UniProt Q9BQI3)
T12 construct: DNA tag (qPCR read-out)
In short: as §1

EPHB4 = target: T13, EPHB4 (Homo sapiens, UniProt P54760)
T13 construct: purchased Ambit (KINOMEscan Max panel service)
In short: as §1

FGFR3(G697C) = target: T14, FGFR3(G697C) (Homo sapiens, UniProt P22607, G697C)
T14 construct: purchased Ambit Kinomescan (contract panel, KINOMEscan Max)
In short: as §1

IKK-alpha = target: T15, IKK-alpha (Homo sapiens, UniProt O15111)
T15 construct: DNA tag (qPCR read-out); purchased Ambit Kinomescan
In short: as §1

[1] = target: T16, JAK2(JH1domain-catalytic) (Homo sapiens, UniProt O60674); conditions: 1 μM
T16 construct: JAK2(JH1domain-catalytic); purchased Ambit Kinomescan (contract screening)
T16 sequence (O60674 849-1124 limits assumed): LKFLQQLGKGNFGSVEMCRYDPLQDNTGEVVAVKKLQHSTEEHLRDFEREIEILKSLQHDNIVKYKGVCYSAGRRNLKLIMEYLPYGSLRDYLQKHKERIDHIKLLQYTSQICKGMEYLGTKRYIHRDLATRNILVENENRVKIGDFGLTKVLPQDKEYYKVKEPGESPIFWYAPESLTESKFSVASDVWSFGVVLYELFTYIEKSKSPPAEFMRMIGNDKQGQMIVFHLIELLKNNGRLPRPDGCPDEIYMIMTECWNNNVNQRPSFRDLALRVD
In short: as §1

KIT = KIT (Homo sapiens, UniProt P10721)
Chain of KIT (P10721 26-976): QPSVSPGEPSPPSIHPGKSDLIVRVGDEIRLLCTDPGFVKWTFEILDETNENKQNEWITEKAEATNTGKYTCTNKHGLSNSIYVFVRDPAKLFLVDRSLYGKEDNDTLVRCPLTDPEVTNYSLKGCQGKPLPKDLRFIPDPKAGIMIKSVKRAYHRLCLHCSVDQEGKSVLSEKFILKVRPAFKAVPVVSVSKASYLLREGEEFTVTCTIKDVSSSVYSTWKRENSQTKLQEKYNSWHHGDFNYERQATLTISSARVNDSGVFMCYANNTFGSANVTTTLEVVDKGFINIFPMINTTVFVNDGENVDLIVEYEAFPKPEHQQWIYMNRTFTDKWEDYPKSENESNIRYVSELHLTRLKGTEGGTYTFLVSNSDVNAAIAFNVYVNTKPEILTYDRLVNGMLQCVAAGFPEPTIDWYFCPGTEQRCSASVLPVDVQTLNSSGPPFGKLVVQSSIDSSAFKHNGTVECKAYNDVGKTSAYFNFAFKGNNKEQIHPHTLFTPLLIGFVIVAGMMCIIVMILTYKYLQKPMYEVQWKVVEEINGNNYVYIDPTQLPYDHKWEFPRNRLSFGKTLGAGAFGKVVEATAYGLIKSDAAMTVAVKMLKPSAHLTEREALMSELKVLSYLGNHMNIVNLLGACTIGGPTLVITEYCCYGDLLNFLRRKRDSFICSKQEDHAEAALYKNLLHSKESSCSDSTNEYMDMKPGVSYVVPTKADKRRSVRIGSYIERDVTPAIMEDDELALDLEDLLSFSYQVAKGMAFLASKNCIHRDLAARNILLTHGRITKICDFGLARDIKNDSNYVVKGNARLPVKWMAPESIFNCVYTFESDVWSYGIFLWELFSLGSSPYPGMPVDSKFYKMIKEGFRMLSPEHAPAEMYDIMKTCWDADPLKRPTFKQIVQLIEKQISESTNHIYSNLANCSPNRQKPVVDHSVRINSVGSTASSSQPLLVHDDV
In short: as §1

KIT(V559D) = target: T17, KIT(V559D) (Homo sapiens, UniProt P10721, V559D)
T17 construct: purchased Ambit Kinomescan (contract screening)
T17 sequence (P10721 26-976 V559D): as the sequence (P10721 26-976) above, with V534D counted along it
In short: as §1

MELK = target: T18, MELK (Homo sapiens, UniProt Q14680)
T18 construct: purchased Ambit (KINOMEscan Max service)
In short: as §1

MYLK2 = target: T19, MYLK2 (Homo sapiens, UniProt Q9H1R3)
T19 construct: purchased Ambit (KINOMEscan Max service)
In short: as §1

NDR2 = NDR2 (Homo sapiens, UniProt Q9Y2H1)
In short: as §1

NEK3 = NEK3 (Homo sapiens, UniProt P51956)
In short: as §1

PFTK1 = target: T20, PFTK1 (Homo sapiens, UniProt O94921); conditions: 1 μM
T20 construct: DNA tag (qPCR read-out)
In short: as §1

PKAC-beta = target: T21, PKAC-beta (Homo sapiens, UniProt P22694)
T21 construct: purchased Ambit (KINOMEscan Max service)
In short: as §1

[2] = target: T22, RSK1(Kin.Dom.1-N-terminal) (Homo sapiens, UniProt Q15418)
T22 construct: RSK1(Kin.Dom.1-N-terminal); DNA tag (qPCR read-out)
T22 sequence (Q15418 62-321 limits assumed): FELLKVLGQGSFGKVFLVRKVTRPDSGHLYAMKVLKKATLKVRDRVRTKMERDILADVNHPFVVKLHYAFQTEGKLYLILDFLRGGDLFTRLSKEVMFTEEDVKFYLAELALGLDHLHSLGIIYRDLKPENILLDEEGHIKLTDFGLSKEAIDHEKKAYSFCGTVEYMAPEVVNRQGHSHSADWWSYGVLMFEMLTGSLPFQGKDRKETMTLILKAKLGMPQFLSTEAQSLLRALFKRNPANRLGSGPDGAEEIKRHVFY
In short: as §1

[3] = target: T23, RSK2(Kin.Dom.1-N-terminal) (Homo sapiens, UniProt P51812)
T23 construct: RSK2(Kin.Dom.1-N-terminal); DNA tag (qPCR read-out)
In short: as §1

SNRK = target: T24, SNRK (Homo sapiens, UniProt Q9NRH2)
T24 construct: DNA tag (qPCR read-out)
In short: as §1

SRC = target: T25, SRC (Homo sapiens, UniProt P12931)
T25 construct: purchased Ambit Kinomescan (contract screening)
In short: as §1

SRPK1 = target: T26, SRPK1 (Homo sapiens, UniProt Q96SB4)
T26 construct: purchased Ambit (KINOMEscan Max service)
In short: as §1

TAK1 = target: T27, TAK1 (Homo sapiens, UniProt O43318)
T27 construct: purchased Ambit (KINOMEscan Max service)
T27 sequence (O43318 whole entry): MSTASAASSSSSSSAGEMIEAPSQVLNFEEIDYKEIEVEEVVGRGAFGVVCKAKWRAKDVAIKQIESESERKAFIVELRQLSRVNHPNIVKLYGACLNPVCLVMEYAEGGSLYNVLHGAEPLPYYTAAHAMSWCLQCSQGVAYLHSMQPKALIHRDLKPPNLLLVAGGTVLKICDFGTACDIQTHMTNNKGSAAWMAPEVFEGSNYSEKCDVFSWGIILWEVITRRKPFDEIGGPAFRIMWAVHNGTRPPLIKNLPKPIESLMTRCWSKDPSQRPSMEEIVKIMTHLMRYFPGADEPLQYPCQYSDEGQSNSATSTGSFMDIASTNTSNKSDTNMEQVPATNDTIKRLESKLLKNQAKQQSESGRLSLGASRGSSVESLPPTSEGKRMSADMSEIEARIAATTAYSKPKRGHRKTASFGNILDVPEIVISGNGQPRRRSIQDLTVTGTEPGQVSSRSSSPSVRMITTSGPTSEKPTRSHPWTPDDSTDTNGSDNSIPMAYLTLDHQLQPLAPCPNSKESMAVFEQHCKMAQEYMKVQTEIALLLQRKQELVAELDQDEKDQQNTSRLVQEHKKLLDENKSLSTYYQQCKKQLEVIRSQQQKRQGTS
In short: as §1

TLK2 = target: T28, TLK2 (Homo sapiens, UniProt Q86UE8)
T28 construct: purchased Ambit Kinomescan (contract screening service)
In short: as §1

TRKC = TRKC (Homo sapiens, UniProt Q16288)
In short: as §1

## NCCCNc1nc2c(Br)c(Br)c(Br)c(Br)c2[nH]1 [Compound 11, N-(3-aminopropyl)-4,5,6,7-tetrabromo-1H-benzo[d]imidazol-2-amine]
ACVR1
  remaining binding at 1 µM: 100%
ACVR2B
  % binding: 100%
ACVRL1
  remaining binding at 1 µM: 100%
AKT3
  remaining binding at 1 µM: 83%
AMPK-alpha2
  remaining binding at 1 µM: 100%
ARK5
  % binding: 100%
BRAF
  remaining binding at 1 µM: 100%
BRSK1
  remaining binding at 1 µM: 100%
CAMK1
  remaining binding at 1 µM: 98%
CDKL3
  remaining binding at 1 µM: 98%
CSNK2A2
  remaining binding at 1 µM: 90%
DYRK1B
  remaining binding at 1 µM: 7.4%
EIF2AK1
  remaining binding at 1 µM: 89%
EPHB4
  remaining binding at 1 µM: 100%
FGFR3(G697C)
  remaining binding at 1 µM: 100%
IKK-alpha
  remaining binding at 1 µM: 24%
[1]
  % binding: 98%
KIT
  remaining binding at 1 µM: 96%
KIT(V559D)
  remaining binding at 1 µM: 97%
MELK
  remaining binding at 1 µM: 82%
MYLK2
  remaining binding at 1 µM: 86%
NDR2
  remaining binding at 1 µM: 100%
NEK3
  remaining binding at 1 µM: 93%
PFTK1
  % binding: 100%
PKAC-beta
  remaining binding at 1 µM: 84%
[2]
  remaining binding at 1 µM: 100%
[3]
  remaining binding at 1 µM: 100%
SNRK
  remaining binding at 1 µM: 100%
SRC
  remaining binding at 1 µM: 97%
SRPK1
  remaining binding at 1 µM: 67%
TAK1
  remaining binding at 1 µM: 65%
TLK2
  remaining binding at 1 µM: 100%
TRKC
  remaining binding at 1 µM: 94%
